# Laboratory results from patent publication US10604554B2, “Double-acylated GLP-1 derivatives” (Novo Nordisk A/S, priority 2012, dated 2020).
# Numbered stars: 1 amine (or outer) side, 2 acyl side, 3 side chain; on linkers, the order of the positions; unused ones are H or OH. Square brackets hold non-standard residues; d marks the D form. Side chains are listed from the residue outwards. Peptide text beside a SMILES is read from it. * marks the point of attachment. Undecanoyl(11-OPh(4-COOH)) = O=C(O)c1ccc(OCCCCCCCCCCC(=O)*)cc1; γGlu = O=C(O)[C@H](CCC(=O)[*:2])N[*:1]; εLys = N[C@@H](CCCCN[*:1])C(=O)[*:2]; Aib = CC(C)(N)C(=O)O
# Legend:
# human GLP-1 receptor [1] = target: T1, human GLP-1 receptor (Homo sapiens, UniProt P43220); test: GLP-1 receptor binding (SPA, displacement of 125I-GLP-1)
# T1 construct: expressed in transfected cells; host or cells: BHK cells, clone FCW467-12A/KZ10-1 (parent line BHKTS13), further transfected with CRE luciferase
# How it was run: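 Tracer [125I]-GLP-1(7-36)NH2 at 0.06 nM final competed on hamster stably transfected cell membranes captured by WGA SPA beads; 120 min, 30 °C, scintillation count.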
# human GLP-1 receptor [2] = target: T1, human GLP-1 receptor; test: In vitro potency (CRE luciferase; whole cells); type: cell-based; parameters: EC50/pM (ratio 1% HSA/0% HSA): unit not given here; details: for EC50: BHK cells; for EC50/pM (ratio 1% HSA/0% HSA): ratio of EC50 at 1% HSA to EC50 at 0% HSA
# How it was run: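 Reporter: CRE-luciferase in BHK cells stably expressing human GLP-1R, 5×10^3 cells/well; compounds tested in buffer containing 0% or 1% HSA.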
# [3] = Pharmacokinetic (PK) study in rat; details: male, Sprague Dawley, in vivo, iv, 6 nmol/kg
# [4] = Pharmacokinetic (PK) study in minipig; details: male, Göttingen, in vivo, iv
# [5] = Receptor binding affinity IC50 (high HSA), 2.0% HSA (high albumin)
# [6] = Receptor binding affinity IC50 (low HSA), 0.001% HSA (low albumin)
# [7] = In vitro potency (CRE luciferase) EC50 (0% HSA), 0% HSA
# [8] = In vitro potency (CRE luciferase) EC50 (1% HSA), 1% HSA
# T1 sequence (P43220 24-463): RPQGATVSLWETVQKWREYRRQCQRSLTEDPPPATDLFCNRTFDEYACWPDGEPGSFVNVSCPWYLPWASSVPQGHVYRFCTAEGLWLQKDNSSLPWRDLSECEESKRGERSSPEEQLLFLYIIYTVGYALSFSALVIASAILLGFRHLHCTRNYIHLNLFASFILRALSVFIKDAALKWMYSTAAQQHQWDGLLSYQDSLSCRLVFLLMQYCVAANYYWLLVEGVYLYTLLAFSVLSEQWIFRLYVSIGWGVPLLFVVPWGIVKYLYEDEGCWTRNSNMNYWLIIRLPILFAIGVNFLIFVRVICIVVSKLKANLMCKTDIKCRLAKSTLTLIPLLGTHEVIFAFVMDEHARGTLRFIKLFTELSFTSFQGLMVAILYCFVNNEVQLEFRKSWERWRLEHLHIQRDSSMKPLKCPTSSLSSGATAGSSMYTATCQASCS
SMILES,IC50 (human GLP-1 receptor [1]; [5]) [nM],IC50 (human GLP-1 receptor [1]; [6]) [nM],EC50 (human GLP-1 receptor [2]; [7]) [nM],EC50 (human GLP-1 receptor [2]; [8]) [nM],EC50/pM (ratio 1% HSA/0% HSA) (human GLP-1 receptor [2]),half-life [3] [h],half-life [4] [h]
CC[C@H](C)[C@H](NC(=O)[C@H](Cc1ccccc1)NC(=O)[C@H](CCC(=O)O)NC(=O)[C@H](CCCCNC(=O)[C@@H](N)CCCCNC(=O)[C@@H](N)CCCCNC(=O)CC[C@H](NC(=O)CC[C@H](NC(=O)CC[C@H](NC(=O)CCCCCCCCCCOc1ccc(C(=O)O)cc1)C(=O)O)C(=O)O)C(=O)O)NC(=O)[C@H](C)NC(=O)[C@H](C)NC(=O)[C@H](CCC(N)=O)NC(=O)CNC(=O)[C@H](CCC(=O)O)NC(=O)[C@H](CC(C)C)NC(=O)[C@H](Cc1ccc(O)cc1)NC(=O)[C@H](CO)NC(=O)[C@H](CO)NC(=O)[C@@H](NC(=O)[C@H](CC(=O)O)NC(=O)[C@H](CO)NC(=O)[C@@H](NC(=O)[C@H](Cc1ccccc1)NC(=O)[C@@H](NC(=O)CNC(=O)[C@H](CCC(=O)O)NC(=O)C(C)(C)NC(=O)[C@@H](N)Cc1c[nH]cn1)[C@@H](C)O)[C@@H](C)O)C(C)C)C(=O)N[C@@H](C)C(=O)N[C@@H](Cc1c[nH]c2ccccc12)C(=O)N[C@@H](CC(C)C)C(=O)N[C@H](C(=O)N[C@@H](CCCNC(=N)N)C(=O)NCC(=O)N[C@@H](CCCNC(=N)N)C(=O)N[C@@H](CCCCNC(=O)[C@@H](N)CCCCNC(=O)[C@@H](N)CCCCNC(=O)CC[C@H](NC(=O)CC[C@H](NC(=O)CC[C@H](NC(=O)CCCCCCCCCCOc1ccc(C(=O)O)cc1)C(=O)O)C(=O)O)C(=O)O)C(=O)O)C(C)C [Example 30],203,0.42,0.0054,0.093,17,16,–
CC[C@H](C)[C@H](NC(=O)[C@H](Cc1ccccc1)NC(=O)[C@H](CCC(=O)O)NC(=O)[C@H](CCCCNC(=O)[C@@H](N)CCCCNC(=O)CNC(=O)[C@H](CO)NC(=O)[C@H](CO)NC(=O)CNC(=O)[C@H](CO)NC(=O)[C@H](CO)NC(=O)CC[C@H](NC(=O)CCCCCCCCCCCOc1ccc(C(=O)O)cc1)C(=O)O)NC(=O)[C@H](C)NC(=O)[C@H](C)NC(=O)[C@H](CCC(N)=O)NC(=O)CNC(=O)[C@H](CCC(=O)O)NC(=O)[C@H](CC(C)C)NC(=O)[C@H](Cc1ccc(O)cc1)NC(=O)[C@H](CO)NC(=O)[C@H](CO)NC(=O)[C@@H](NC(=O)[C@H](CC(=O)O)NC(=O)[C@H](CO)NC(=O)[C@@H](NC(=O)[C@H](Cc1ccccc1)NC(=O)[C@@H](NC(=O)CNC(=O)[C@H](CCC(=O)O)NC(=O)C(C)(C)NC(=O)[C@@H](N)Cc1c[nH]cn1)[C@@H](C)O)[C@@H](C)O)C(C)C)C(=O)N[C@@H](C)C(=O)N[C@@H](Cc1c[nH]c2ccccc12)C(=O)N[C@@H](CC(C)C)C(=O)N[C@H](C(=O)N[C@@H](CCCNC(=N)N)C(=O)NCC(=O)N[C@@H](CCCNC(=N)N)C(=O)N[C@@H](CCCCNC(=O)[C@@H](N)CCCCNC(=O)CNC(=O)[C@H](CO)NC(=O)[C@H](CO)NC(=O)CNC(=O)[C@H](CO)NC(=O)[C@H](CO)NC(=O)CC[C@H](NC(=O)CCCCCCCCCCCOc1ccc(C(=O)O)cc1)C(=O)O)C(=O)O)C(C)C [Example 23],102,–,–,0.156,–,19,–
"CC[C@H](C)[C@H](NC(=O)[C@H](Cc1ccccc1)NC(=O)[C@H](CCC(=O)O)NC(=O)[C@H](CCCCNC(=O)[C@@H](N)CCCCNC(=O)[C@@H](N)CCCCNC(=O)CC[C@H](NC(=O)CCCCCCCCCCCOc1ccc(C(=O)O)cc1)C(=O)O)NC(=O)[C@H](C)NC(=O)[C@H](C)NC(=O)[C@H](CCC(N)=O)NC(=O)CNC(=O)[C@H](CCC(=O)O)NC(=O)[C@H](CC(C)C)NC(=O)[C@H](Cc1ccc(O)cc1)NC(=O)[C@H](CO)NC(=O)[C@H](CO)NC(=O)[C@@H](NC(=O)[C@H](CC(=O)O)NC(=O)[C@H](CO)NC(=O)[C@@H](NC(=O)[C@H](Cc1ccccc1)NC(=O)[C@@H](NC(=O)CNC(=O)[C@H](CCC(=O)O)NC(=O)C(C)(C)NC(=O)[C@@H](N)Cc1c[nH]cn1)[C@@H](C)O)[C@@H](C)O)C(C)C)C(=O)N[C@@H](C)C(=O)N[C@@H](Cc1c[nH]cn1)C(=O)N[C@@H](CC(C)C)C(=O)N[C@H](C(=O)N[C@@H](CCC(N)=O)C(=O)NCC(=O)N[C@@H](CCCNC(=N)N)C(=O)N[C@@H](CCCCNC(=O)[C@@H](N)CCCCNC(=O)[C@@H](N)CCCCNC(=O)CC[C@H](NC(=O)CCCCCCCCCCCOc1ccc(C(=O)O)cc1)C(=O)O)C(=O)O)C(C)C [Example 4, N^ε26-[(2S)-2-amino-6-[[(2S)-2-amino-6-[[(4S)-4-carboxy-4-[12-(4-carboxyphenoxy)dodecanoylamino]butanoyl]amino]hexanoyl]amino]hexanoyl], N^ε37-[(2S)-2-amino-6-[[(2S)-2-amino-6-[[(4S)-4-carboxy-4-[12-(4-carboxyphenoxy)dodecanoylamino]butanoyl]amino]hexanoyl]amino]hexanoyl]-[Aib^8,His^31,Gln^34,Lys^37]-GLP-1-(7-37)-peptide]",172,0.48,–,1.61,307,17,–
"CC[C@H](C)[C@H](NC(=O)[C@H](Cc1ccccc1)NC(=O)[C@H](CCC(=O)O)NC(=O)[C@H](CCCCNC(=O)[C@@H](N)CCCCNC(=O)[C@@H](N)CCCCNC(=O)CC[C@H](NC(=O)CCCCCCCCCCOc1ccc(C(=O)O)cc1)C(=O)O)NC(=O)[C@H](C)NC(=O)[C@H](C)NC(=O)[C@H](CCC(N)=O)NC(=O)[C@H](CCC(=O)O)NC(=O)[C@H](CCC(=O)O)NC(=O)[C@H](CC(C)C)NC(=O)[C@H](Cc1ccc(O)cc1)NC(=O)[C@H](CO)NC(=O)[C@H](CO)NC(=O)[C@@H](NC(=O)[C@H](CC(=O)O)NC(=O)[C@H](CO)NC(=O)[C@@H](NC(=O)[C@H](Cc1ccccc1)NC(=O)[C@@H](NC(=O)CNC(=O)[C@H](CCC(=O)O)NC(=O)C(C)(C)NC(=O)[C@@H](N)Cc1c[nH]cn1)[C@@H](C)O)[C@@H](C)O)C(C)C)C(=O)N[C@@H](C)C(=O)N[C@@H](Cc1c[nH]c2ccccc12)C(=O)N[C@@H](CC(C)C)C(=O)N[C@H](C(=O)N[C@@H](CCC(N)=O)C(=O)NCC(=O)N[C@@H](CCCNC(=N)N)C(=O)N[C@@H](CCCCNC(=O)[C@@H](N)CCCCNC(=O)[C@@H](N)CCCCNC(=O)CC[C@H](NC(=O)CCCCCCCCCCOc1ccc(C(=O)O)cc1)C(=O)O)C(=O)O)C(C)C [Example 36, N^ε26-[(2S)-2-amino-6-[[(2S)-2-amino-6-[[(4S)-4-carboxy-4-[11-(4-carboxyphenoxy)undecanoylamino]butanoyl]amino]hexanoyl]amino]hexanoyl], N^ε37-[(2S)-2-amino-6-[[(2S)-2-amino-6-[[(4S)-4-carboxy-4-[11-(4-carboxyphenoxy)undecanoylamino]butanoyl]amino]hexanoyl]amino]hexanoyl]-[Aib^8,Glu^22,Gln^34,Lys^37]-GLP-1-(7-37)-peptide] (H-H[Aib]EGTFTSDVSSYLEEQAAK([εLys-εLys-γGlu-Undecanoyl(11-OPh(4-COOH))])EFIAWLVQGRK([εLys-εLys-γGlu-Undecanoyl(11-OPh(4-COOH))])-OH; N-terminus and C-terminus assumed)",25,0.1,0.0049,0.065,14,–,69
